Measured values from PubChem BioAssay (NCI).
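Results reflect a 48-hour exposure of cells in 96-well plates to compound at five concentrations. TGI is the concentration that stops growth completely.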

Assays:
Assay in all cases: NCI tumour cell line growth inhibition, 48 h
[1] = test system: 786-0 renal
[2] = test system: A498 renal
[3] = test system: A549 NSCLC
[4] = test system: ACHN renal
[5] = test system: BT-549 breast
[6] = test system: CAKI-1 renal
[7] = test system: CCRF-CEM leukemia
[8] = test system: COLO 205 colon
[9] = test system: DU-145 prostate
[10] = test system: EKVX NSCLC
[11] = test system: HCC-2998 colon
[12] = test system: HCT-116 colon
[13] = test system: HCT-15 colon
[14] = test system: HL-60(TB) leukemia
[15] = test system: HOP-62 NSCLC
[16] = test system: HOP-92 NSCLC
[17] = test system: HS 578T breast
[18] = test system: HT29 colon
[19] = test system: IGROV1 ovarian
[20] = test system: K-562 leukemia
[21] = test system: KM12 colon
[22] = test system: LOX IMVI melanoma
[23] = test system: M14 melanoma
[24] = test system: MALME-3M melanoma
[25] = test system: MCF7 breast
[26] = test system: MDA-MB-231 breast
[27] = test system: MDA-MB-435
[28] = test system: MDA-N
[29] = test system: MOLT-4 leukemia
[30] = test system: NCI-H226 lung
[31] = test system: NCI-H23 lung
[32] = test system: NCI-H460 lung
[33] = test system: NCI-H522 lung
[34] = test system: NCI/ADR-RES ovarian
[35] = test system: OVCAR-4 ovarian
[36] = test system: OVCAR-5 ovarian
[37] = test system: OVCAR-8 ovarian
[38] = test system: PC-3 prostate
[39] = test system: RPMI-8226 leukemia
[40] = test system: RXF 393 renal
[41] = test system: SF-268 CNS
[42] = test system: SF-295 CNS
[43] = test system: SF-539 CNS
[44] = test system: SK-MEL-2 melanoma
[45] = test system: SK-MEL-28 melanoma
[46] = test system: SK-MEL-5 melanoma
[47] = test system: SK-OV-3 ovarian
[48] = test system: SN12C renal
[49] = test system: SNB-19 CNS
[50] = test system: SNB-75 CNS
[51] = test system: SR leukemia
[52] = test system: SW-620 colon
[53] = test system: T-47D breast
[54] = test system: TK-10 renal
[55] = test system: U251 CNS
[56] = test system: UACC-257 melanoma
[57] = test system: UACC-62 melanoma
[58] = test system: UO-31 renal
[59] = test system: OVCAR-3 ovarian

`C/C(=N/NC(=S)Nc1cccc(Cl)c1)c1cccc(/C(C)=N\NC(=S)Nc2cccc(Cl)c2)n1` gave a TGI [1] of over 41.7 µM, a TGI [2] of over 100 µM and a TGI [3] of over 24.5 µM. For the same molecule, the TGI [4] was 6.73 µM, the TGI [5] was over 100 µM and the TGI [6] was over 48.1 µM. It also gave a TGI [7] of 16.2 µM, a TGI [8] of over 100 µM and a TGI [9] of over 73.1 µM. It also gave a TGI [10] of over 39.7 µM, a TGI [11] of over 100 µM and a TGI [12] of over 35.4 µM. It also gave a TGI [13] of over 100 µM, a TGI [14] of over 100 µM and a TGI [15] of 23.8 µM. It also gave a TGI [16] of over 100 µM, a TGI [17] of over 74.6 µM and a TGI [18] of over 42.4 µM. For the same molecule, the TGI [19] was over 75.2 µM, the TGI [20] was over 40.4 µM and the TGI [21] was over 100 µM. It also gave a TGI [22] of over 38.5 µM, a TGI [23] of 7.76 µM and a TGI [24] of 22.4 µM. It also gave a TGI [25] of 8.94 µM, a TGI [26] of over 100 µM and a TGI [27] of over 100 µM. The TGI [28] was over 65.7 µM, the TGI [29] was 8.67 µM and the TGI [30] was 5.44 µM. The TGI [31] was over 38.5 µM, the TGI [32] was over 44.7 µM and the TGI [33] was over 27000 nM. For the same molecule, the TGI [34] was over 100 µM, the TGI [35] was over 100 µM and the TGI [36] was over 85.8 µM. It also gave a TGI [37] of over 37.5 µM, a TGI [38] of over 58.1 µM and a TGI [39] of 15.9 µM. For the same molecule, the TGI [40] was over 43.9 µM, the TGI [41] was over 47.8 µM and the TGI [42] was over 30 µM. It also gave a TGI [43] of 3.72 µM, a TGI [44] of over 43.9 µM and a TGI [45] of over 100 µM. For the same molecule, the TGI [46] was 35 µM, the TGI [47] was over 55.3 µM and the TGI [48] was over 46.3 µM. It also gave a TGI [49] of over 100 µM, a TGI [50] of 40.8 µM and a TGI [51] of 4.56 µM. For the same molecule, the TGI [52] was over 100 µM, the TGI [53] was over 100 µM and the TGI [54] was over 100 µM. It also gave a TGI [55] of over 59.3 µM, a TGI [56] of 56 µM and a TGI [57] of 16.4 µM. It also gave a TGI [58] of over 20.9 µM.

`O=C(/C=C/c1ccc(O)c(O)c1)Oc1ccccc1` gave a TGI [1] of 48.1 µM, a TGI [2] of over 100 µM and a TGI [3] of 59 µM. The TGI [4] was 41.7 µM, the TGI [5] was 53.6 µM and the TGI [6] was 32.5 µM. It also gave a TGI [7] of 42.8 µM, a TGI [8] of 29.2 µM and a TGI [9] of 43.8 µM. It also gave a TGI [10] of over 72.9 µM, a TGI [11] of over 58.8 µM and a TGI [12] of 34.6 µM. For the same molecule, the TGI [13] was 36.2 µM, the TGI [14] was 20.1 µM and the TGI [15] was 49.2 µM. The TGI [16] was 47.6 µM, the TGI [17] was 49 µM and the TGI [18] was 48.8 µM. The TGI [19] was 30.6 µM, the TGI [20] was over 100 µM and the TGI [21] was 40.4 µM. For the same molecule, the TGI [22] was 21 µM, the TGI [23] was 55.2 µM and the TGI [25] was 64.9 µM. It also gave a TGI [26] of 61.8 µM, a TGI [27] of over 74.2 µM and a TGI [28] of over 81 µM. For the same molecule, the TGI [29] was over 48.4 µM, the TGI [30] was over 100 µM and the TGI [31] was 46.2 µM. For the same molecule, the TGI [32] was 51 µM, the TGI [33] was 1950 nM and the TGI [34] was 43.5 µM. It also gave a TGI [59] of 47.6 µM, a TGI [35] of over 100 µM and a TGI [36] of over 96.3 µM. For the same molecule, the TGI [37] was 38.2 µM, the TGI [38] was over 76.9 µM and the TGI [39] was 45 µM. The TGI [40] was 40.1 µM, the TGI [41] was 32 µM and the TGI [42] was 61.4 µM. For the same molecule, the TGI [43] was 88.5 µM, the TGI [44] was 44 µM and the TGI [45] was over 100 µM. The TGI [46] was 33 µM, the TGI [47] was over 100 µM and the TGI [48] was 48.7 µM. For the same molecule, the TGI [49] was over 80.9 µM, the TGI [50] was 44.2 µM and the TGI [51] was 24.8 µM. For the same molecule, the TGI [52] was over 100 µM, the TGI [53] was 65.2 µM and the TGI [54] was over 100 µM. The TGI [55] was 48.3 µM, the TGI [56] was over 81.8 µM and the TGI [57] was 35.9 µM. For the same molecule, the TGI [58] was 30.5 µM.
